Data: US20060166933A1, “Novel 2H-chromene derivatives as selective estrogen receptor modulators” (priority 2004, published 2006)

What was measured:
[1] = molecular target: T1, human estrogen receptor α (Homo sapiens, UniProt P03372); experiment: Estrogen Receptor α Flash Plate Assay (binding of radiolabeled estrogen); conditions: radiolabeled estrogen 0.5 nM, FlashPlate, 1 h room temperature; read-out: ER-α Binding
T1 construct: purchased Panvera
T1 sequence (P03372 1-595): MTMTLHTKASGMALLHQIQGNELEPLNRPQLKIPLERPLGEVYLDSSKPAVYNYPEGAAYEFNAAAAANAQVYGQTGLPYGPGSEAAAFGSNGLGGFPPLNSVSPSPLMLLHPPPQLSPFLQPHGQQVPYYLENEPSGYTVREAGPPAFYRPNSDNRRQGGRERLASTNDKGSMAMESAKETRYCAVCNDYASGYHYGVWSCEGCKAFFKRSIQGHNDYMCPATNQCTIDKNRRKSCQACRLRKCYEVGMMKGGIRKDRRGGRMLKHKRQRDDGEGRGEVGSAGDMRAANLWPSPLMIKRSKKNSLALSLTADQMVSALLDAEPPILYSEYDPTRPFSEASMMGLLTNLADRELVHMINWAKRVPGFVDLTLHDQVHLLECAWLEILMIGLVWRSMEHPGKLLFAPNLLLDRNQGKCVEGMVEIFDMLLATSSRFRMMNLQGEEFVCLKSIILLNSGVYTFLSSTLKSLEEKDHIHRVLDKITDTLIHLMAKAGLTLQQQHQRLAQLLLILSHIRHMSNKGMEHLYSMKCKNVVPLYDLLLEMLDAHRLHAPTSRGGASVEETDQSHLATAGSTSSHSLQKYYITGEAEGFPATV
Description: Estrogen Receptor α Flash Plate Assay
This assay monitors binding of radiolabeled estrogen to the estrogen receptor. It is performed on a BioMek 2000 (Beckman). Plates are read in a scintillation counter (Packard TopCount), with decreased counts an indication of binding of a compound to the receptor. The assay was run according to the procedure described by Allan, et al., Anal. Biochem. (1999), 275(2), 243-247.
On day one, 100 μL of Estrogen Screening Buffer (ESB, Panvera) containing 5 mM dithiothreitol (DTT, Panvera), 0.5 μg mouse anti-estrogen receptor monoclonal antibody (SRA-1010, Stressgen) and 50 ng purified human estrogen receptor a (Panvera) were added to each well of a 96 well FlashPlate Plus plate crosslinked with goat anti-mouse antibodies (NEN Life Sciences). The plate was sealed and incubated at 4° C. overnight.
On day two, each well was washed three times with 200 μL PBS, pH 7.2, at room temperature. To each well was then added 98 μL radiolabeled estrogen (0.5 nM, which equals 6 nCi for a 120 Ci/mmol batch, Amersham), diluted in ESB and 5 mM dithiothreitol (DTT). To individual wells were then added 2.5 μL test compound diluted in 30% (v/v) dimethyl sulfoxide/50 mM HEPES, pH 7.5. The wells were mixed three times by aspiration, the plate sealed and incubated at room temperature for one hour. The wells were then counted for 1 min in a TopCount scintillation counter (Packard).
(§1) Representative compounds of the present invention were tested according to the procedures described in Examples 23-24, above for binding to the estrogen-α and estrogen-β receptors, with results as listed in Table 2, below.

hER-β = molecular target: T2, hER-β (Homo sapiens, UniProt Q92731); experiment: Estrogen Receptor β Fluorescence Polarization Assay (Fluormone ES2 displacement); conditions: Fluormone ES2, 1 h room temperature, read-out: ER β-Binding
T2 construct: purchased Panvera
Source text: Estrogen Receptor β Fluorescence Polarization Assay
This assay monitors binding of a fluorescent analog of estrogen (Fluormone ES2, Panvera) to the estrogen receptor. Plates are read in a fluorometer that can be set to polarization mode. A decrease in […] relative to vehicle control is an indication of binding of a compound to the receptor.
It is crucial to avoid introduction of air bubbles into the reaction in each well of the 96 well plate throughout this procedure. (Bubbles on the surface of the reaction disrupt light flow, affecting the polarization reading.) However, it is also crucial to effectively mix the reaction components upon addition to the well.
On ice, a 2× standard mixture of Assay Buffer (Panvera), 10 nM DTT and 40 nM ES2 was prepared. On ice, a 2× reaction mixture of Assay Buffer (Panvera), and 20 nM hER-β (Panvera) and 40 nM ES2 was also prepared.
Dilutions of test compound were prepared in 30% (v/v) dimethyl sulfoxide/50 mM HEPES, pH 7.5. At this point, the dilutions were 40× the final required concentration.
The standard mixture at 50 μL was then added to each well. The reaction mixture at 48 μL was added to all wells. The compound dilution at 2.5 μL was added to the appropriate wells. The reaction mixtures were mixed using a manual pipette, a roll of aluminum foil adhesive cover was placed on the plate and the plate incubated at room temperature for 1 hour.
Each well on the plate was then read in an LjL Analyst with an excitation wavelength of […] and an emission wavelength of 538.
as §1

T2 sequence (Q92731 whole entry): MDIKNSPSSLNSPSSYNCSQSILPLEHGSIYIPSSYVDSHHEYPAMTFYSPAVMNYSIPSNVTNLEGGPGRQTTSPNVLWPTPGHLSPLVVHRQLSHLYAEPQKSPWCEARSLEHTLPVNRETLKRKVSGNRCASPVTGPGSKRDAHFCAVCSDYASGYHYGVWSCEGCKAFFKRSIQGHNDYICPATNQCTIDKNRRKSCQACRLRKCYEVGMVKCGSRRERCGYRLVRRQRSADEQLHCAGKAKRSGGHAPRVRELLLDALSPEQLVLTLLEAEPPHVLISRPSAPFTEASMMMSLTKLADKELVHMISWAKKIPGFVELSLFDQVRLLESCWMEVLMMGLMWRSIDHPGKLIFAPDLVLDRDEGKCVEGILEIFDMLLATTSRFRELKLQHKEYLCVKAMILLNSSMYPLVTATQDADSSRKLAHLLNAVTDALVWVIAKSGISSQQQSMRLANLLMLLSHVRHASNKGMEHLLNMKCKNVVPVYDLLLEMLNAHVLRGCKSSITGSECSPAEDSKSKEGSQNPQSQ

**Q.** `Oc1ccc2c(c1)OC(c1ccc(OCCN3CCCCC3)cc1)C=C2C1CCCC1` (stereo not drawn) [compound 10] was tested. Which IC50 [1] did it give?
**A.** 0.18 µM

**Q.** And the IC50 (hER-β)?
**A.** 0.5 µM

**Q.** `OCCC1=CC(c2ccc(OCCN3CCCCC3)cc2)Oc2cc(O)ccc21` (stereo not drawn) [compound 6] was tested. Which IC50 [1] did it give?
**A.** > 10 µM

**Q.** And the IC50 (hER-β)?
**A.** > 10 µM

**Q.** Which results are given for `Oc1ccc2c(c1)OC(c1ccc(OCCN3CCCCC3)cc1)C1=C2CCCCC1` (stereo not drawn) [compound 9]?
**A.** IC50 [1]: 0.059 µM; IC50 (hER-β): 0.69 µM

**Q.** “4-(2-Hydroxy-ethyl)-2-[4-(2-piperidin-1-yl-ethoxy)-phenyl]-2H-chromen-7-ol [ID No. 6]” was tested. Which IC50 [1] did it give?
**A.** 0.5 µM

**Q.** And the IC50 (hER-β)?
**A.** 0.5 µM

**Q.** With `CC1=C(COCC[Si](C)(C)C)[C@H](c2ccc(OCCN3CCCCC3)cc2)Oc2cc(O)ccc21` (single isomer, unassigned) [compound 3] as the compound, how does the IC50 [1] read?
**A.** 0.18 µM

**Q.** And the IC50 (hER-β)?
**A.** > 10 µM

**Q.** For “4-Methyl-2-[4-(2-piperidin-1-yl-ethoxy)-phenyl]-2-H-chromen-7-ol [ID No. 4]”, which IC50 [1] is on record?
**A.** 2.2 µM

**Q.** And the IC50 (hER-β)?
**A.** > 10 µM
